Source: article PMC9584906, “Cryo-EM structures of thermostabilized prestin provide mechanistic insights underlying outer hair cell electromotility” (Nature Communications, 2022)

Assays:
[1] = target: T1, HgPres (naked mole-rat prestin) (Heterocephalus glaber, UniProt A0AAX6NYL9); assay: whole-cell nonlinear capacitance (NLC); assay type: cell-based; settings: 10 mM salicylate in bath; HEK293T cells; room temperature; pH 7.3
T1 construct: gene Slc26a5
T1 sequence (A0AAX6NYL9 1-744): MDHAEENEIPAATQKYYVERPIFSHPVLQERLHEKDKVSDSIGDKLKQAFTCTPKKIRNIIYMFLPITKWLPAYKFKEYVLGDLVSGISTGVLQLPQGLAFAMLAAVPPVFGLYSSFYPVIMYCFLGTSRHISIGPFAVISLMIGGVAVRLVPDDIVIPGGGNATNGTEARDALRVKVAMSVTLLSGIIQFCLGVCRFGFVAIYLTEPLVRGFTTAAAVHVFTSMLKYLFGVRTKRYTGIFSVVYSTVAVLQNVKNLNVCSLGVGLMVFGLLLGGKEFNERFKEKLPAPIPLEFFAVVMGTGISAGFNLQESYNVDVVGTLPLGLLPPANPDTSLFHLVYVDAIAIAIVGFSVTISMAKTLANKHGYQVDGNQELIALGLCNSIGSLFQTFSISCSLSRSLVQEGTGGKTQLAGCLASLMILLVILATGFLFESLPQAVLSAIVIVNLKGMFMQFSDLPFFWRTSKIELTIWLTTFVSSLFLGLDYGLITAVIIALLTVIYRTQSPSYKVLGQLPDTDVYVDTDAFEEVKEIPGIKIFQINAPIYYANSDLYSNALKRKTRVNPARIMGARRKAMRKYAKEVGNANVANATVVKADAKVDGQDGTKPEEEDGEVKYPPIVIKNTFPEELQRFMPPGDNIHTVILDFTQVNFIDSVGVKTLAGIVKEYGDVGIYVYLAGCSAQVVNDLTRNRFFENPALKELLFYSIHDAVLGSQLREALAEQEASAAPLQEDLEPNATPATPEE

[2] = target: T2, hPres (human prestin, SLC26A5) (Homo sapiens, UniProt P58743); assay: isothermal titration calorimetry; assay type: binding
T2 construct: full-length; C-terminal TEV-FLAG-EGFP tag cleaved off; HEK293S GnTI- (BacMam); digitonin micelles
T2 sequence (P58743 1-744): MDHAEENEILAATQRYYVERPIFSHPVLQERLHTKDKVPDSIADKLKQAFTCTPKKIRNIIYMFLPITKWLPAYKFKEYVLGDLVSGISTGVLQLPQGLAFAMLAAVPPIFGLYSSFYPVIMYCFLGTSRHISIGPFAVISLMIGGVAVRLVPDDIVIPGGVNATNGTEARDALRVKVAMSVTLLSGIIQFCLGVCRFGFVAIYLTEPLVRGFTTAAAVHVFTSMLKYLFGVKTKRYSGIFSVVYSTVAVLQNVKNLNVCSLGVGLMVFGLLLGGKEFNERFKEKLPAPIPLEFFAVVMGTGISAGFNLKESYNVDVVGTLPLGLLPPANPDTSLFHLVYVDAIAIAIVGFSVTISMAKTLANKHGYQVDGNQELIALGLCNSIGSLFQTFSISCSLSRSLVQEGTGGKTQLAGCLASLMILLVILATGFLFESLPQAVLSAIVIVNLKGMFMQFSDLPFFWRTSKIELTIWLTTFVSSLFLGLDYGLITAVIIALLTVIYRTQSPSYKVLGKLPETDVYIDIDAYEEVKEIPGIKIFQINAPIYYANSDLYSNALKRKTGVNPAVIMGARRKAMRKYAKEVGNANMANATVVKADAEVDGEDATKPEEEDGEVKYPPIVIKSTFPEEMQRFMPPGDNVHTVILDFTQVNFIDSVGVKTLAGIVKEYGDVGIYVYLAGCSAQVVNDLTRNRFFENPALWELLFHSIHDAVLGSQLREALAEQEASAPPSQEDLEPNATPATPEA

In the case of `O=C(O)c1ccccc1O` [salicylate], the “effect on NLC at 10 mM” value [1] is reported as “The effect of salicylate on the NLC of WT (left) and S398A-HgPres (right)” and the Kd [2] is reported as 7.08 mM.
